Patent publication US11911397B2, “Anordrin compositions and methods for treating diseases” (Zhejiang Jiachi Development Pharmaceuticals LTD, priority 2014, dated 2024)

Columns and labels:
[1] = tested on: patients whose cancers were potentially caused by EGF/Her1; details: patients who failed to be inhibited by an EGF competitor; cited from earlier work
HepG2 cells = test: HepG2 cell growth; format: cell-based
[2] = tested on: ovariectomized (OVX) mice; test: ovariectomized (OVX) mice model; format: in vivo
[3] = tested on: BRCA1, ApoD, COX7a mRNA in MCF-7 cells; test: RT-qPCR of genes regulated by the estrogen classic pathway in MCF-7 cells; format: cell-based
[4] = biological target: T1, ER-α ligand binding domain (GST-ER-α-LBD) (Homo sapiens, UniProt P03372); test: 3H-E2 competition assay on GST-ER-α-LBD beads
T1 construct: made in house; host or cells: E. coli
T1 sequence (P03372 311-547 limits assumed): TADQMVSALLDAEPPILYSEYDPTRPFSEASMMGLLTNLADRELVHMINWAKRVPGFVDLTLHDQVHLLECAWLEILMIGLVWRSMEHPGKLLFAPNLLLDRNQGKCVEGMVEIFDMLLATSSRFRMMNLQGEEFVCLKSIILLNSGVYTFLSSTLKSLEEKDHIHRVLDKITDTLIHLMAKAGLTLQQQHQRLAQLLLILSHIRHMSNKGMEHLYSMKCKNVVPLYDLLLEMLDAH

db/db mice = test: blood glucose in db/db mice; format: in vivo
[5] = tested on: Bcl-2 expression in MCF-7 cells; test: Bcl-2 expression in MCF-7 cells (western blotting, RT-qPCR); format: cell-based
GPER1 = biological target: T2, GPER1 (Homo sapiens, UniProt Q99527); test: 3H-E2 binding to GPER1 fusion protein expressed in HEK-293 cells; details: 100 nM anordrin, 1 nM 3H-E2, HEK-293 lysate
T2 construct: expressed in transfected cells; host or cells: HEK-293
Procedure: (§1) Binding and competition assays: GST and GST-ER-α fusion proteins were expressed in E. coli and purified using glutathione beads. 2 μg/ml GST (40-80 nM) fusion proteins in 1 ml TE buffer was mixed with 1 nM ^3H-E2 at 4° C. for 2 h. Radioactivity on beads was measured using a GM meter. HEK-293 cells were transfected to express GST fusion proteins of ER-β or GPER1. Cells were lysed in 1×TE buffer containing protease inhibitor cocktail (sigma) on ice for 30 min, 80% glycerol was added to reach 20% glycerol. Tubes were centrifuged at 300 g for 5 min and supernatant was collected. Protein concentration was measured by Bio-rad protein concentration assay kit. 100 nM anordrin and 1 nM^3H-E2 was added to 1 ml lysate (5 mg/ml total protein) at 4° C. for 2 h. Radioactivity on beads was measured using GM meter.

MDA-MB-231 cells [6] = test: MDA-MB-231 cell growth, cell counting; format: cell-based; details: 6 μM anordrin
Ishikawa cells = test: Ishikawa cell proliferation; format: cell-based
[7] = tested on: endometrial epithelial cells; test: endometrial epithelial cells in mice (histology)
Excerpt: Preparation of paraffin sections and HE staining: The tissue of mice was excised by surgery and fixed using 2.5% formaldehyde in 1×PBS.

ER-β = biological target: T3, ER-β (Homo sapiens, UniProt Q92731); test: 3H-E2 binding to ER-β fusion protein expressed in HEK-293 cells; details: 100 nM anordrin, 1 nM 3H-E2, HEK-293 lysate
T3 construct: expressed in transfected cells; host or cells: HEK-293
Procedure: as §1

MDA-MB-231 cells [8] = test: MDA-MB-231 cell migration (matrixgel / transwell); format: cell-based; details: 6 μM anordrin
Procedure: As anordrin has been reported as an anti-angiogenic agent resulting in inhibition of cell migration and invasion (16), we studied its ability to modulate MDA-MB-231 cell migration using matrixgel. […] After 20 hours migrated cells were stained and quantified using a plate reader at 560 nm.

normal mice = normal mice treated with tamoxifen, anordrin or both
[9] = tested on: ERK phosphorylation in HepG2 cells; test: phosphorylation of ERK in HepG2 cells; format: cell-based; details: non-monotonic dose response
[10] = tested on: integrin β1 in MDA-MB-231 cells; test: integrin β1 cell surface distribution and expression in MDA-MB-231 cells; format: cell-based; details: 6 μM
Procedure: MCF-7 cells were harvested and lysed in RIPA buffer. 40 μg total protein of cellular lysate was used for Western blotting to determinate the expression level of integrin β1.
Integrin translocation to the cell surface is regulated by the p130Cas scaffold protein complex to play a fundamental role in cell attachment and migration. Integrin α3β1 has been reported to be involved in MCF-7 cell attachment as well as MDA-MB-231 cell migration (25, 26). […] To verify the hypothesis, we treated MCF-7 and MDA-MB-231 cells with 6 μM anordrin for 16 hours and measured cell surface integrin β1 distribution using a FITC-labeled anti-integrin β1 antibody. […] Taken together, we conclude that anordrin or analog thereof (such as […]) binds to membrane-associated ER to inhibit cell migration and proliferation.
Transwell and flow cytometry assay: Cells were starved for 48 hours in phenol red free medium containing 5% charcoal-stripped FBS, and then changed into phenol red free medium for an additional 24 hours. Transwell was performed following the Chemicon kit instructions (CAT #ECM551). Briefly, cells were trypsinized, washed using 1×DPBS containing Ca2+ and Mg2+ (Sigma) and resuspensed in serum and phenol red free medium at a cell density of 0.5×10^6 cells/ml. […]

Hec1A cells = test: Hec1A cell proliferation; format: cell-based
MCF-7 cells [11] = test: MCF-7 cell growth, cell counting; format: cell-based
Procedure: To test this hypothesis we induced MCF-7 cells in IL-free medium for two months. Drug sensitivity of cell growth was tested by counting the cell number after 144 h of inoculation (FIG. 13A).

MCF-7 cells [12] = test: glucose consumption and medium pH of MCF-7 cells; format: cell-based
[13] = anordrin 0.45 μg/g in combination with tamoxifen 4.5 μg/g per day

T2 sequence (Q99527 whole entry, species assumed, the tested form may be a part): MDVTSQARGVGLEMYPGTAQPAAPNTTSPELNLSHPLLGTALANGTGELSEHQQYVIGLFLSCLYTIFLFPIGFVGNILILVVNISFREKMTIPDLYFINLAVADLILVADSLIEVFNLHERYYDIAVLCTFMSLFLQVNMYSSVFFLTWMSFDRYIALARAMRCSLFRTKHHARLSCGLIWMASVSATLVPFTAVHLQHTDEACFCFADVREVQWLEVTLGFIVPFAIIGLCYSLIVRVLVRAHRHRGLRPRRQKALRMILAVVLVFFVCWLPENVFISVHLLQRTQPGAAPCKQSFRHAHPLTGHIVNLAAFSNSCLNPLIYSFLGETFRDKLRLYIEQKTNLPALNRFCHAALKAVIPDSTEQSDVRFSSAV
T3 sequence (Q92731 whole entry, species assumed, the tested form may be a part): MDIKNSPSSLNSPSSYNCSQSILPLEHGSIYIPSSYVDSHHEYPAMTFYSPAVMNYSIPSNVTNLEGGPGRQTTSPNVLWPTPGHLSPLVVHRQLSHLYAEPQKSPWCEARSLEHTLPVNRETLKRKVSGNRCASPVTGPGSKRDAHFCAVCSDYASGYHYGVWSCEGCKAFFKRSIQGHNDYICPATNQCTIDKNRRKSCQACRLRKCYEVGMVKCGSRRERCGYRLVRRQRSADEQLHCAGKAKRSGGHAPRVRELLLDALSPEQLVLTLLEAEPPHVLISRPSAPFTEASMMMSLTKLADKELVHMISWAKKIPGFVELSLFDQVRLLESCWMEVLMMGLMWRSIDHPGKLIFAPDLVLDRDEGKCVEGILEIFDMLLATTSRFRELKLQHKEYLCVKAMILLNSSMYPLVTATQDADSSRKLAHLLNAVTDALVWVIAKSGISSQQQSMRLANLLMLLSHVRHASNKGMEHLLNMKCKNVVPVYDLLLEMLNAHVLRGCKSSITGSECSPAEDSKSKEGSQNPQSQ

C#C[C@@]1(OC(=O)CC)C[C@@H]2CC[C@@H]3[C@H](CC[C@@]4(C)[C@H]3CC[C@]4(C#C)OC(=O)CC)[C@@]2(C)C1 [anordrin, 2α,17α-diethynyl-A-nor-5α-androstane-2β,17β-diol dipropionate]
quality of life and lifespan of patients [1]: improve the quality of life and increase the lifespan | concentration showing the greatest degree of inhibition of cell growth (HepG2 cells): around 7 μM | shape of dose response of cell growth inhibition (HepG2 cells): biphasic dose response | fat deposits in paraffin sections of liver ([2]; OVX mice): smaller fat deposits | body mass ([2]; OVX mice, after 6 weeks, intragastric): remained unchanged | total cholesterol (TC) in liver ([2]; OVX mice, compared to controls): decreased amounts | triglyceride (TG) in liver ([2]; OVX mice, compared to controls): decreased amounts | bone marrow cells ([2]; ovariectomized mice): prevent decrease | serum Ca^2+ ([2]; ovariectomized mice): increased | serum Pi ([2]; ovariectomized mice): decreased | uterine atrophy ([2]; ovariectomized mice): prevent uterine atrophy | bone density ([2]; ovariectomized mice, micro-CT): increased | mRNA level of BRCA1 [3]: did not significantly affect | inhibition of 3H-E2 binding to GST-ER-α-LBD ([4]; 50 nM compound, 0.5 nM 3H-E2, 2 μg GST-ER-α-LBD): could not inhibit | blocking of [H^3-E2] binding to GST-ER-α-LBD on beads ([4]; 50 nM, 0.5 nM [H^3-E2], 1 μg GST-ER-α-LBD): no inhibition | whole blood glucose / glucose consumption (db/db mice; female db/db mice, 0.45 μg/g body mass daily, 4 weeks): improved glucose consumption | glucose consumption (db/db mice; male db/db mice, data not shown): no affect | increase of Bcl-2 mRNA transcription ([5]; 6 μM dinordrin, RT-qPCR): 3.18%±3.22% | Bcl-2 mRNA expression ([5]; 7.5 μM, data not shown): not affected | Bcl-2 protein expression ([5]; 7.5 μM, western blotting): not affected | Bcl-2 protein expression ([5]; charcoal-stripped FBS in phenol red free DMEM): Neither tamoxifen nor anordrin or analog thereof (such as anordrin) were found to affect Bcl-2 protein expression | 3H-E2 binding to GPER1 fusion protein (GPER1): inhibits | MDA-MB-231 cell growth (MDA-MB-231 cells [6]): inhibits MDA-MB-231 cell growth significantly | doses inhibiting proliferation (Ishikawa cells): 2 to 8 µM | hypertrophy of endometrial epithelial cells [7]: causes hypertrophy | endometrial epithelial cell proliferation ([7]; monolayer vs polylayer): does not induce | 3H-E2 binding to ER-β fusion protein (ER-β): inhibits | MDA-MB-231 cell migration in medium containing E2 (MDA-MB-231 cells [8]; 10 nM E2): significantly inhibited | MDA-MB-231 cell migration in medium containing EGF (MDA-MB-231 cells [8]; 10 ng/ml EGF): significantly inhibited | tamoxifen-induced NASH syndrome phenotype (normal mice; [13]): completely reversed | tamoxifen-induced body weight phenotype (normal mice; [13]): completely reversed | tamoxifen-induced liver TG phenotype (normal mice; [13]): completely reversed | increased serum TG levels induced by tamoxifen (normal mice; mice): reverse | increased serum viscosity induced by tamoxifen (normal mice; mice): reverse | tamoxifen-induced uterine and vaginal atrophy (normal mice; tamoxifen treated mice): decrease the extent | concentration of maximal phosphorylation of ERK [9]: 10 µM | expression level of integrin β1 [10]: did not affect | integrin β1 distribution to the plasma membrane ([10]; 16 hours): down-regulated | doses inhibiting proliferation (Hec1A cells): 2 to 8 µM | effect on the ability of tamoxifen to inhibit MCF-7 cell growth (MCF-7 cells [11]; 200 nM anordrin in the culture medium): did not affect | inhibition at 7.5 µM (MCF-7 cells [11]; Homo sapiens, MCF7, 7.5 μM): > 50% | effect on tamoxifen inhibition of glucose metabolism (MCF-7 cells [12]; 200 nM anordrin with 1 μM tamoxifen, MCF-7, 60 hours): reversed the inhibitory effect | pH of culture medium (MCF-7 cells [12]; MCF-7 cells): decreased pH | glucose concentration of media / glucose consumption (MCF-7 cells [12]; MCF-7 cells, 60 hours): lower
